One block for each compound: values may come before it. Active and inactive are the calls of the source.
How the values were obtained:
INS1 = assay: INS-1E survival protection against cytokine death – cell-based, luminescence, retest, dose response (AID 449756); format: functional; details: Rattus norvegicus;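 further: cell death triggered by IL-1 beta plus TNF-alpha plus IFN-gamma mixture; protective hits raise ATP signal compared with cytokine alone wells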
Hexokinase HKDC1 = molecular target: T1, Hexokinase HKDC1 (Homo sapiens, UniProt Q2TB90); assay: activation of HKDC1 glucose phosphorylation – biochemical, W721R variant, dose response (AID 504730); format: functional
T1 sequence (Q2TB90 whole entry): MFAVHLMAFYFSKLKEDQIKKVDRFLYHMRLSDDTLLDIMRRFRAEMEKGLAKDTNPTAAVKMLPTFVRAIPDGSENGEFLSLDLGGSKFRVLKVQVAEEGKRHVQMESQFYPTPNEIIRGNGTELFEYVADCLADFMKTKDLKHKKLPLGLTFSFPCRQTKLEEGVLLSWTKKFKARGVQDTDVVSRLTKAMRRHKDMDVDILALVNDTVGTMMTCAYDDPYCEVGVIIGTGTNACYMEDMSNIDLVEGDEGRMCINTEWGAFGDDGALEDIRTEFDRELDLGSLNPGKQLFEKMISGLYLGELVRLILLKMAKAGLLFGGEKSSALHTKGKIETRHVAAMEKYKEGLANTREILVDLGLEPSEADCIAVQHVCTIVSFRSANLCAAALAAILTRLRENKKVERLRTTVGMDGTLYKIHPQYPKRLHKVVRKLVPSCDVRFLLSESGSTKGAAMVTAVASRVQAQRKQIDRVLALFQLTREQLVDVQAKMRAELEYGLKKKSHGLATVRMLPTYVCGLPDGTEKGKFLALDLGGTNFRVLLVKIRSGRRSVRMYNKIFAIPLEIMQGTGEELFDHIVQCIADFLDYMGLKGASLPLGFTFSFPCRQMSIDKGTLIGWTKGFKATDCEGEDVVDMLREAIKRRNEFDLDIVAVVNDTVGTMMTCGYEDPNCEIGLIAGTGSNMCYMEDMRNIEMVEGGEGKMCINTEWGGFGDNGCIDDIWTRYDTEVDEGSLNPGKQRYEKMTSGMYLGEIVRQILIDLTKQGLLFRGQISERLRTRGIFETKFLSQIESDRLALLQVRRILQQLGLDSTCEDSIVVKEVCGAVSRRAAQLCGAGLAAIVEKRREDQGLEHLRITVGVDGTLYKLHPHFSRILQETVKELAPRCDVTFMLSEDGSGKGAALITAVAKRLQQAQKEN

[1] = loss of viability in HepG2 cells – cell-based, CellTiter-Glo, cherry-picked, cytotoxicity control for Shn3 inhibitor project, dose response (AID 624134); format: functional
[2] = reduction of Shn3 3'UTR-driven luciferase in osteoblasts – cell-based, Clone20 osteoblasts, firefly luciferase, cherry-picked, dose response (AID 624132); format: functional;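 further: firefly luciferase luminescence from reporter carrying the Shn3 3'UTR in osteoblasts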
[3] = non-specific 3'UTR reporter inhibition in Clone20-Shn3RL – cell-based, Renilla luciferase, cherry-picked, counter-screen for Shn3 inhibitor project, dose response (AID 624133); format: functional
Hexokinase-1 = molecular target: T2, Hexokinase-1 (Homo sapiens, UniProt P19367); assay: HK1 enzyme activation by HKDC1 hits – biochemical, selectivity assay for HKDC1 activator project, dose response (AID 504762); format: functional
T2 sequence (P19367 whole entry): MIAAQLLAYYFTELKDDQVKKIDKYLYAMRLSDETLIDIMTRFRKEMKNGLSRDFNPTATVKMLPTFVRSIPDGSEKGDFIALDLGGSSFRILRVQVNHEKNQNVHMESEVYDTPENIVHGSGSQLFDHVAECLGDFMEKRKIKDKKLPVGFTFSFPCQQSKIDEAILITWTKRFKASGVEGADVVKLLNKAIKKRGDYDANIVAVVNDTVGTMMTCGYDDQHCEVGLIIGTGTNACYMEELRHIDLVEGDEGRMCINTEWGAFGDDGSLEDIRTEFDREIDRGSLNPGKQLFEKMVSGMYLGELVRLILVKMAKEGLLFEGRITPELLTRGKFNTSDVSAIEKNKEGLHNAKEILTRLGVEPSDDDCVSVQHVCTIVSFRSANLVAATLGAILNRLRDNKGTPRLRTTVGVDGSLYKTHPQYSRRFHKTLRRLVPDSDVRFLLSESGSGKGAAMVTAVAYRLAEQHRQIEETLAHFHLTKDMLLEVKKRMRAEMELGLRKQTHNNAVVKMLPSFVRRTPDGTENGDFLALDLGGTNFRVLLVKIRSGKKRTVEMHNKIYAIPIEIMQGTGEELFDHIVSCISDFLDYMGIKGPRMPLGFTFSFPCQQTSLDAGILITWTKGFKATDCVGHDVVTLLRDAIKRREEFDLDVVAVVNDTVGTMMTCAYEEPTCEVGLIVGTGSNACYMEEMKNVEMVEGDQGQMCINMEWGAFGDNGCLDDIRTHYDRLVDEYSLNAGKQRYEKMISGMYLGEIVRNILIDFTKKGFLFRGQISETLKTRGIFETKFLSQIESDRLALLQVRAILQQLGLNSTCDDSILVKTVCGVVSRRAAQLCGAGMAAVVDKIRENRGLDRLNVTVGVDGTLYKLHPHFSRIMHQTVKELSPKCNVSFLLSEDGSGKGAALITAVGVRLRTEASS

[4] = molecular target: T3, Short transient receptor potential channel 4 (Mus musculus, UniProt Q9QUQ5); assay: block of DAMGO-driven TRPC4 calcium entry – cell-based, HEK293 TRPC4/mu-opioid, Fluo-4 calcium, dose response (AID 434942); format: functional;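 further: potency of inhibitors blocking the TRPC4 calcium response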
T3 sequence (Q9QUQ5 whole entry): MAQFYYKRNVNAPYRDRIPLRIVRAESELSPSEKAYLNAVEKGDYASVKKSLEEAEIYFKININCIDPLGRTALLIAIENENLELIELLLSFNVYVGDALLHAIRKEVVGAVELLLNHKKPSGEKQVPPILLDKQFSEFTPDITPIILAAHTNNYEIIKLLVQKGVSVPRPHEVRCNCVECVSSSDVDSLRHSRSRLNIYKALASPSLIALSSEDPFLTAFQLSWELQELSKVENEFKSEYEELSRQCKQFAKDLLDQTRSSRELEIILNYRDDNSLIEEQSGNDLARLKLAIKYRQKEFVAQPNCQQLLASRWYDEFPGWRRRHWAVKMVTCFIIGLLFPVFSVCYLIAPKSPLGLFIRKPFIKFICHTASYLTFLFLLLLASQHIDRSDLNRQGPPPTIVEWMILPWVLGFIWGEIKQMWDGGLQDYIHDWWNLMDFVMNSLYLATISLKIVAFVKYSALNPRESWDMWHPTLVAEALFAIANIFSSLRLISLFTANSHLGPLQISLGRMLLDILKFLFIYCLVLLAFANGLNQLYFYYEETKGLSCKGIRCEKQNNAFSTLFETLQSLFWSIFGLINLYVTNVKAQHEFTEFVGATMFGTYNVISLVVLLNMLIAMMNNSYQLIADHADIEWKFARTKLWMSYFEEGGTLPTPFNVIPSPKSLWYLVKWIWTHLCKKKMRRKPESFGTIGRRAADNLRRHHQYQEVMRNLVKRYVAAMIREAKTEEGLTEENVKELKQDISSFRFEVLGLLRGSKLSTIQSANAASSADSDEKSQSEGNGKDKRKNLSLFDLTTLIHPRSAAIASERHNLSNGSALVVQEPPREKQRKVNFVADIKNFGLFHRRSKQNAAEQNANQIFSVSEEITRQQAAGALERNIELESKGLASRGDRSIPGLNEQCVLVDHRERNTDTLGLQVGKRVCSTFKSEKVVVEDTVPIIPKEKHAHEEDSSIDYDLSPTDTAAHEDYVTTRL

[5] = molecular target: T3, Short transient receptor potential channel 4; assay: calcium entry via TRPC4 opening agents – cell-based, HEK293 TRPC4/mu-opioid, Fluo-4 calcium, dose response (AID 434937); format: functional
[6] = viability of HCT116 lacking mutant beta-catenin – cell-based, human colon tumor, dose response (AID 1045); format: functional;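 further: HCT116 colon tumor cells with beta catenin knocked out; cells exposed to compound for 60 hours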
[7] = molecular target: Voltage-dependent T-type calcium channel subunit alpha-1H (Homo sapiens, UniProt O95180); format: functional;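 further: channel activity triggered by adding a high calcium stimulation buffer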
[8] = viability of PTEN-deleted HCT116 cells – cell-based, HCT116 PTEN knockout, dose response (AID 1047); format: functional;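 further: HCT116 colon tumor cells with PTEN knocked out; cells exposed to compound for 60 hours before readout; potency for loss of cell viability measured by luminescence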
[9] = molecular target: T4, Apoptotic protease-activating factor 1 (Homo sapiens, UniProt O14727); format: functional
T4 sequence (O14727 whole entry): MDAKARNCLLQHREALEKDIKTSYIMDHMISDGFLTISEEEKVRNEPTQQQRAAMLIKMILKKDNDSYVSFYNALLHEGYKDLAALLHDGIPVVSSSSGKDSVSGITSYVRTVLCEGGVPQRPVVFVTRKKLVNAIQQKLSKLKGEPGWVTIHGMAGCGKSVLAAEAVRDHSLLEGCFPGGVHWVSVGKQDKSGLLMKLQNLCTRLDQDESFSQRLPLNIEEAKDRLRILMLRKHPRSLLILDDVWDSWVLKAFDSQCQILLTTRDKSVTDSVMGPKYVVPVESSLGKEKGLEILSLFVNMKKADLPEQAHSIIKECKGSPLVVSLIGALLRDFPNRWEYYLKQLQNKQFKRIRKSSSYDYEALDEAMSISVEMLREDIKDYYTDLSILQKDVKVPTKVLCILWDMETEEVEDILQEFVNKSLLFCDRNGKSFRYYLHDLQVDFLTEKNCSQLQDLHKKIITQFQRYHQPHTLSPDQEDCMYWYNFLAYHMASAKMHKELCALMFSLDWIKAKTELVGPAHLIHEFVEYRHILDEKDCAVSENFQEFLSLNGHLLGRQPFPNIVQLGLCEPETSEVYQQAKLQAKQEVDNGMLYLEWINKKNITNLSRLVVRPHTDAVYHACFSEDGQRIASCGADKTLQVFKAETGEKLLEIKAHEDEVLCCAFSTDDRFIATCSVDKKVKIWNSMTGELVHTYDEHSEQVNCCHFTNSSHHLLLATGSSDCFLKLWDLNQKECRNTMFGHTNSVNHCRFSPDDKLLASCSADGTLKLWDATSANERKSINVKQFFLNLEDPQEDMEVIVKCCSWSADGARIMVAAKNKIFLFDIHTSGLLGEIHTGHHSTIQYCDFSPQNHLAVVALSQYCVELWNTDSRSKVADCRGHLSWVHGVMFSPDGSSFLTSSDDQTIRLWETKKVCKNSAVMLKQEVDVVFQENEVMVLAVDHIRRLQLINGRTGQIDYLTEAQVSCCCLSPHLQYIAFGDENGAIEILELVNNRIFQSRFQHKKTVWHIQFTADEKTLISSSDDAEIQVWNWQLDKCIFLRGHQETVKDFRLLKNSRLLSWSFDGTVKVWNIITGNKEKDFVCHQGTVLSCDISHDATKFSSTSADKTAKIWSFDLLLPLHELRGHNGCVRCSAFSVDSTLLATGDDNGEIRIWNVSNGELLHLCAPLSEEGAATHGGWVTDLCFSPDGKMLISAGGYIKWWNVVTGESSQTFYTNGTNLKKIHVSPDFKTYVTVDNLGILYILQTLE

[10] = molecular target: T5, Runt-related transcription factor 1/Core-binding factor subunit beta (Homo sapiens, UniProt Q01196+Q13951); assay: disruptors of Runt domain/CBFb-SMMHC interaction – biochemical, FRET, Cerulean-Runt, Venus-CBFb-SMMHC, uHTS, […] (AID 1434); format: protein assay
[11] = molecular target: T5, Runt-related transcription factor 1/Core-binding factor subunit beta; assay: Runt domain/CBFb-SMMHC interaction disruptors – biochemical, TR-FRET (AID 1438); format: protein assay
[12] = molecular target: T6, Lysine-specific demethylase 4C (Homo sapiens, UniProt Q9H3R0); assay: inhibition of JMJD2C H3K9me3 demethylation – biochemical, DELFIA europium, cherry-picked samples, dose response (AID 488835); format: functional
T6 sequence (Q9H3R0 whole entry): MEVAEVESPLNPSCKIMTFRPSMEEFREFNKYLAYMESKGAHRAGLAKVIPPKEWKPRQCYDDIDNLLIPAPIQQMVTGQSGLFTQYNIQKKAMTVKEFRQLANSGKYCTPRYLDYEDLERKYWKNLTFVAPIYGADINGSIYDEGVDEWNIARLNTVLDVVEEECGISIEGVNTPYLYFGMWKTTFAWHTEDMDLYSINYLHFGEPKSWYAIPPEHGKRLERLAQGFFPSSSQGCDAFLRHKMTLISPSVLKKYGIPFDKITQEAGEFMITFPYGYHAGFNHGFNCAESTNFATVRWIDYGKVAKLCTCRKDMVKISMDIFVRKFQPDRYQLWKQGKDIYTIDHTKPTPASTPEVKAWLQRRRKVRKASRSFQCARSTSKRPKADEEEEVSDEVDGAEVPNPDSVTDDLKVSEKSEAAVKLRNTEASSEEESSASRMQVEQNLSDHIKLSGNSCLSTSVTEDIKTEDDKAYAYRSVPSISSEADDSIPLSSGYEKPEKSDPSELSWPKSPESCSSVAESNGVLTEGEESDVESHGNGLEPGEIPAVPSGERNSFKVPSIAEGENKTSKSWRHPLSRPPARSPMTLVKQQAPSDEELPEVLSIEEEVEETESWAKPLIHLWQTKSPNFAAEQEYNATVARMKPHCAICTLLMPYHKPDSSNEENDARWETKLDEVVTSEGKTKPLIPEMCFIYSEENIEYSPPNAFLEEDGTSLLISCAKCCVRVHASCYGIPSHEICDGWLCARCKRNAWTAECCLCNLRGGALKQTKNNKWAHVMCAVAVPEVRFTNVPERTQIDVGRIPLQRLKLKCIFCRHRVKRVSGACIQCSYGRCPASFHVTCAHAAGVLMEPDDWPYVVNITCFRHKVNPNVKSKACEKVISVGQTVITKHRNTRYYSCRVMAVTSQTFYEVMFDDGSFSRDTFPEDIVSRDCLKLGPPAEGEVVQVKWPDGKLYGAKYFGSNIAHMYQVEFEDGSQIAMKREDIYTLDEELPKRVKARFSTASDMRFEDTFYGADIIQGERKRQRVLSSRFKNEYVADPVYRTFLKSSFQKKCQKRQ

T5 sequence (Q01196 whole entry, the tested form may be a part): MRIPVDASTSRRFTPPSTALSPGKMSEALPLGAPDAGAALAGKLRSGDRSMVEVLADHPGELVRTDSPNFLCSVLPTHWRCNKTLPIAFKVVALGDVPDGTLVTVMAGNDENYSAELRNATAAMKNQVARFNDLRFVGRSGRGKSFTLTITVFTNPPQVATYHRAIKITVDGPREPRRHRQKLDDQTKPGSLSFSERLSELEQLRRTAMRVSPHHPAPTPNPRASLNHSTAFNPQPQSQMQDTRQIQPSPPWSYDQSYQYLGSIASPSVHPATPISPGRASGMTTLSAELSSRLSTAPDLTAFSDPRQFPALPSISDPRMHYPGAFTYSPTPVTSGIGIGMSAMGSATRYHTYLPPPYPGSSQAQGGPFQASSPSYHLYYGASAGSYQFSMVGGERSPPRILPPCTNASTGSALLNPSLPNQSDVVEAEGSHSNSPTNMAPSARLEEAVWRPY
T5 sequence (Q13951 whole entry, the tested form may be a part): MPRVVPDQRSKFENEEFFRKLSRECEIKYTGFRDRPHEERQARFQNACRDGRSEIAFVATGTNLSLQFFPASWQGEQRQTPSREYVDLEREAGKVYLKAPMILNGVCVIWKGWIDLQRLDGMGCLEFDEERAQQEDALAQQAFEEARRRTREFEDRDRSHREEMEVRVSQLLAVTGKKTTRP
Chain of Voltage-dependent T-type calcium channel subunit alpha-1H (O95180 whole entry): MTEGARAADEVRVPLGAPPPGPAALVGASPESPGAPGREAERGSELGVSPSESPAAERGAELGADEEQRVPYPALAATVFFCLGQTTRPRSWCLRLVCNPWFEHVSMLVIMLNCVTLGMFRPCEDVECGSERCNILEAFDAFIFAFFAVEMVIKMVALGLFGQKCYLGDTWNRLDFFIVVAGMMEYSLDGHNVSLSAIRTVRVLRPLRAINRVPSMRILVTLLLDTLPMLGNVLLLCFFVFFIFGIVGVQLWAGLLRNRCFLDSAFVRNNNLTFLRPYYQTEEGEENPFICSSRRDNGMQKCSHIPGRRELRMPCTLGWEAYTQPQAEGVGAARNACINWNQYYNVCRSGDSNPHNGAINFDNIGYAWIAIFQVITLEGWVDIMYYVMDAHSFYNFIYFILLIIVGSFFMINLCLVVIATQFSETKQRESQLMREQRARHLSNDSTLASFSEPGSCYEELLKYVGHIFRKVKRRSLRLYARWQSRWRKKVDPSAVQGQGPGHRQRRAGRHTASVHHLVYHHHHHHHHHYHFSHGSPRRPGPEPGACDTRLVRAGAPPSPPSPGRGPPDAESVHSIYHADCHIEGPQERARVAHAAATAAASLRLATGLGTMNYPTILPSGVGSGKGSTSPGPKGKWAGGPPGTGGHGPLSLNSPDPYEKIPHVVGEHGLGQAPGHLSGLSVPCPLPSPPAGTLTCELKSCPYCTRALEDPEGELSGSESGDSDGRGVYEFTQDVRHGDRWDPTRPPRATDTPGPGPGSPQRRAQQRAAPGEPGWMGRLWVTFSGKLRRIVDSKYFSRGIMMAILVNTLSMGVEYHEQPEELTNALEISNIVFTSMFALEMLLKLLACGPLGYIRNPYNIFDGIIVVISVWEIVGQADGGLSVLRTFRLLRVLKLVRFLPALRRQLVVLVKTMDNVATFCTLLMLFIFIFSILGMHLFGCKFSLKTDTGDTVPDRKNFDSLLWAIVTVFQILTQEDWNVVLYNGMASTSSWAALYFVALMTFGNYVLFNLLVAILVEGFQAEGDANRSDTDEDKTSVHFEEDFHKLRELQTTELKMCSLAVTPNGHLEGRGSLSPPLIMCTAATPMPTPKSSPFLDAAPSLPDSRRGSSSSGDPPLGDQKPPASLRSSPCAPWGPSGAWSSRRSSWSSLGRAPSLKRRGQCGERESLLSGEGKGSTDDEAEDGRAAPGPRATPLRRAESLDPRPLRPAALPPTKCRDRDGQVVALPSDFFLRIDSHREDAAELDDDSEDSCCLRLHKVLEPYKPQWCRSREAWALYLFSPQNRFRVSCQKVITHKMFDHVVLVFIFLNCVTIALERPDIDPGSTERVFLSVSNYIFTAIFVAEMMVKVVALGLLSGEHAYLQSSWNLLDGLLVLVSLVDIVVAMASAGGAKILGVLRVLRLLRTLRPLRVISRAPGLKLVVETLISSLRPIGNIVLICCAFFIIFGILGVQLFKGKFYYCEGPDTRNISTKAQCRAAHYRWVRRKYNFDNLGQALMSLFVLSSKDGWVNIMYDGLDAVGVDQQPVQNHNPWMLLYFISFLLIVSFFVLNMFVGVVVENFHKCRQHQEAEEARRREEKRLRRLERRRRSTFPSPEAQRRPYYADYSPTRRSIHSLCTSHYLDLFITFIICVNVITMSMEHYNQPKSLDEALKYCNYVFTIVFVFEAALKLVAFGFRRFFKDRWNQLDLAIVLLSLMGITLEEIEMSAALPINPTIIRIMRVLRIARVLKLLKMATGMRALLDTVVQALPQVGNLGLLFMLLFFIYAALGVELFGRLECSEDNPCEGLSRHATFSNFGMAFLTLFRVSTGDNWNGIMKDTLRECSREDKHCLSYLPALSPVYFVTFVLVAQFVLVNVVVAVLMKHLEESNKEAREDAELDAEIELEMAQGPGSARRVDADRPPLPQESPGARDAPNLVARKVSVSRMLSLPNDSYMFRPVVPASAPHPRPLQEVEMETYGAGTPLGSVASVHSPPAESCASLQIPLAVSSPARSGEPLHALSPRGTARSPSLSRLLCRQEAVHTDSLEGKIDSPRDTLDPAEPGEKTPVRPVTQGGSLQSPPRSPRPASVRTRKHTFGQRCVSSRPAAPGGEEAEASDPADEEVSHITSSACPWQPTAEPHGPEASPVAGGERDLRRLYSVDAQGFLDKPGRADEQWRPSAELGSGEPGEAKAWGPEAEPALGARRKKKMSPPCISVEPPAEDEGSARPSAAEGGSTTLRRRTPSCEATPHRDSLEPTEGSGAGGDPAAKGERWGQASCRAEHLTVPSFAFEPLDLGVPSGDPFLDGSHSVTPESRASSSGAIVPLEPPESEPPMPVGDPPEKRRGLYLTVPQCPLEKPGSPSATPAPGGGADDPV

Structure (SMILES): C=CCn1nc([N+](=O)[O-])nc1Sc1cccc2cccnc12
AC50 (INS1): 1.24 µM (active)
EC50 (Hexokinase HKDC1): > 80 µM (inactive)
AC50 [1]: 30.3 µM (active)
AC50 [2]: 10.7 µM (active)
AC50 [3]: 7.05 µM (active)
EC50 (Hexokinase-1): > 80 µM (inactive)

EC50 [4]: 1.33 µM (active)
EC50 [5]: 4.22 µM (active)
Structure (SMILES): Clc1ccc(COn2c(-c3ccc(Cl)cc3Cl)nc3ncccc32)cc1

Structure (SMILES): O=C(CN1CCN(c2ncc(C(F)(F)F)cc2Cl)CC1)N1CCN(c2ncc(C(F)(F)F)cc2Cl)CC1
EC50 [6]: 49.1 µM (active)
EC50 [7]: 8.68 µM (active)
EC50 [5]: 3.35 µM (active)
EC50 [8]: 48.4 µM (active)

Structure (SMILES): COCCCNC(=O)c1c(NC(=O)c2ccco2)n(Cc2ccccc2)c2nc3ccccc3nc12
IC50 [9]: > 100 µM (inactive)
IC50 [10]: 0.34 µM (active)
IC50 [11]: 16 µM (active)

AC50 [12]: 22.3 µM (active)
EC50 (Hexokinase HKDC1): 38.1 µM (inactive)
EC50 (Hexokinase-1): 47.4 µM (inactive)
Structure (SMILES): CC(C)(C)c1ccc(-c2csc(NNC3=NCCCCC3)n2)cc1

Source: ChEMBL document CHEMBL1201862, “PubChem BioAssay data set” (2004)
